Measurements: US7041785B1, “B1-bradykinin receptor antagonists and use thereof” (Université de Sherbrooke, priority 1996, dated 2006)
Non-standard residues stand in square brackets, D forms with d. Residues, ends and D or L forms follow the SMILES beside them. Tyr(3,5-I2) = N[C@@H](Cc1cc(I)c(O)c(I)c1)C(=O)O; Oic = O=C(O)[C@@H]1C[C@@H]2CCCC[C@@H]2N1; 2Nal = N[C@@H](Cc1ccc2ccccc2c1)C(=O)O; d2Nal = N[C@H](Cc1ccc2ccccc2c1)C(=O)O; Hyp = O=C(O)[C@@H]1C[C@@H](O)CN1; Tic = O=C(O)[C@@H]1Cc2ccccc2CN1; dTic = O=C(O)[C@H]1Cc2ccccc2CN1; 2Thi = N[C@@H](Cc1cccs1)C(=O)O; Ahx = NCCCCCC(=O)O; Sar = CNCC(=O)O

Assays:
human B2 receptor = target: T1, human B2 receptor (Homo sapiens, UniProt P30411); experiment: Human umbilical vein bioassay in presence of Lys(Leu8)desArg9BK, B2 receptor; assay type: cell-based; details: vs BK, Lys(Leu8)desArg9BK 1 μmol/L present
T1 construct: Helical strips of HUV were prepared according to Gobeil et al; from tissue; host or cells: human umbilical vein helical strips
T1 sequence (P30411 1-391): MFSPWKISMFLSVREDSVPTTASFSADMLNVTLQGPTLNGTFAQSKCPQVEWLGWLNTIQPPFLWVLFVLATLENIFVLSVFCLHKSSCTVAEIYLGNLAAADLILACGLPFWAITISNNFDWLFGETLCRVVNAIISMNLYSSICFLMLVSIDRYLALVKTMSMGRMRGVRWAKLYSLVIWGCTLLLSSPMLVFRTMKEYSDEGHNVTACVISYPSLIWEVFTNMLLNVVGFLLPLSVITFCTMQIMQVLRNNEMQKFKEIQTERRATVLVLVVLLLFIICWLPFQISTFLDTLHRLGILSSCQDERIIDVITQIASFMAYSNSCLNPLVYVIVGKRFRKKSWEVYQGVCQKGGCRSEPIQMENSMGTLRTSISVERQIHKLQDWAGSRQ
Source text: Tissues were taken from New Zealand white rabbits (1.5–2.5 kg) and Dunken Hartley guinea pigs (250–350 g) of either sex, killed by stunning and exsanguination. Umbilical cords were taken from healthy women 22–40 years old after spontaneous delivery at term. The rabbit jugular vein (RbJV), the guinea pig ileum (GPI), two preparations containing B2 receptors, the rabbit aorta (RbA) (B1 receptor) and the human umbilical vein (HUV), a mixed preparation containing both B1 and B2 receptors^10, were used. Helical strips of RbJV treated with 1 μmol/L of captopril to avoid peptide degradation by the angiotensin-converting enzyme (ACE), alias kininase II were prepared according to Gaudreau et al.^11 Helical strips of RbA devoid of endothelium were prepared according to Furchgott and Bhadrakom^12. Longitudinal segments of GPI were prepared with the procedure described by Rang^13. Helical strips of HUV were prepared according to Gobeil et al.^10. The tissues were suspended in 10-ml organ baths containing warm (37EC), oxygenated (95% O2–5% CO2) Krebs solution of the following composition in mmol/L; NaCl: 118.1; KCl: 4.7; CaCl26H2O: 2.5; KH2PO4: 1.2; MgSO47H2O: 1.18; NaHCO3: 25.0 and D-Glucose: 5.5. The RbA and the HUV were stretched with an initial tension of 2 g, whereas the RbJV and the GPI were loaded with 0.5 g. Changes of tension produced by the various agents were measured with Grass isometric transducers (model FT 03C, Grass Instrument Co., Quincy, Mass.). […] Before testing the drugs, the tissues were allowed to equilibrate for 60–120 min during which time the tissues were repeatedly washed and the tension readjusted every 15 min.
At the beginning of each experiment, a submaximal dose of bradykinin (BK) (9 nmol/L), was applied repeatedly on the RbJV, the GPI or the HUV to ensure that tissues responded with stable contractions. […] A similar protocol was used for the HUV.
Repeated applications of a singl and double concentration of BK (on RbJV, GPI and HUV) and of desArg^9BK (RbA and HUV) were made in the absence and in presence of the various peptides to evaluate their apparent affinities as antagonists, in terms of pA2 (-log10 of the molar concentration of antagonist that reduces the effect of a double concentration of agonist to that of a single one)^14. The antagonists were applied 10 min before measuring the myotropic effects of either BK (the B2 receptor agonist) or desArg^9BK (the B1 receptor agonist). […] All kinin antagonists were initially applied to tissues at concentration of 10 μg/mL to measure their potential agonistic activities (α^E) in comparison with BK (in the B2 receptor preparations) or desArg^9BK (in the B1 receptor preparations).

B1 receptor = target: T2, B1 receptor (Oryctolagus cuniculus, UniProt P48748); experiment: cell-based; details: for Kb: Rb.A. pA2, apparent affinity as antagonist vs desArg9BK, antagonist applied 10 min before, Inactive = no detectable antagonistic effect at ≦ 10 μg/ml; for Rb.A. α^E: residual agonistic activity at 10 μg/mL in comparison with desArg9BK
T2 sequence (P48748 1-352): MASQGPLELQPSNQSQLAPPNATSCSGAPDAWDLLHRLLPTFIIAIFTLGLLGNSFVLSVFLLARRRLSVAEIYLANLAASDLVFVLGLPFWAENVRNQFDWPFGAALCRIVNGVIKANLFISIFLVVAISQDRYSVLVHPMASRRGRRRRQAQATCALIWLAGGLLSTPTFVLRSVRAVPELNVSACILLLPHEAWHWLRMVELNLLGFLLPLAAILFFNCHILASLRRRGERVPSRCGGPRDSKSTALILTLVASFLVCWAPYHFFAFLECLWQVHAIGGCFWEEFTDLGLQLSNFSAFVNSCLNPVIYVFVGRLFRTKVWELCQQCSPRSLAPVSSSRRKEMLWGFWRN
Outline: (§1)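 Isolated rabbit jugular vein (captopril 1 μmol/L), guinea pig ileum, endothelium-free rabbit aorta and human umbilical vein, in Krebs at 37 °C, with isometric tension recorded. Agonism was tested at 10 μg/mL.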

B2 receptor [1] = target: T3, B2 receptor (Oryctolagus cuniculus, UniProt Q28642); experiment: cell-based; details: for Rb.J.V. α^E: residual agonistic activity at 10 μg/mL in comparison with BK
T3 sequence (Q28642 1-367): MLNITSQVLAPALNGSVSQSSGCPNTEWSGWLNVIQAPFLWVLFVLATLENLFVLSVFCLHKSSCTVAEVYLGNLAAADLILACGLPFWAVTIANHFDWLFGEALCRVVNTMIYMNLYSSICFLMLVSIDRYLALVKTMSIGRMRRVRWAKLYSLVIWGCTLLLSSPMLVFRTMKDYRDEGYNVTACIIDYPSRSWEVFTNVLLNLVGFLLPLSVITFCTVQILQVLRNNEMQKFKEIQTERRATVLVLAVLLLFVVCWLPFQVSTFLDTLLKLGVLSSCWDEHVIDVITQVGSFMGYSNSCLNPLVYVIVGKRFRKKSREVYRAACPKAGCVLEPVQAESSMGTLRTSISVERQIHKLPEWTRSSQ
Outline: as §1

B2 receptor [2] = target: T4, B2 receptor (Cavia porcellus, UniProt O70526); experiment: cell-based; details: for G.P.I. pA2: vs BK, Inactive = no detectable antagonistic effect at ≦ 10 μg/ml, F.ag. full agonist, P.ag. partial agonist; for G.P.I. α^E: residual agonistic activity at 10 μg/mL in comparison with BK
T4 sequence (O70526 1-372): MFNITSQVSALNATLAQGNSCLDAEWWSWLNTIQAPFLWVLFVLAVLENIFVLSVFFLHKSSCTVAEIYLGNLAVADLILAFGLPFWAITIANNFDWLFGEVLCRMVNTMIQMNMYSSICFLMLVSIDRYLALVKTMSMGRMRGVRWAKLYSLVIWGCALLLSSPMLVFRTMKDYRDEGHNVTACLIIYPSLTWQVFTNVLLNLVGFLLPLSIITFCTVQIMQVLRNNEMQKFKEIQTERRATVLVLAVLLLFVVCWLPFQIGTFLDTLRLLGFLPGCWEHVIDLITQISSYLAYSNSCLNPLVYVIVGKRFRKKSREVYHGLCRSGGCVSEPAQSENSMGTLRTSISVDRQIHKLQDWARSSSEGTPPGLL
Outline: as §1

SMILES | Human umbilical vein B2 receptor pA2 (human B2 receptor) | Kb (B1 receptor) [µM] | Kb (B2 receptor [1]) [µM] | G.P.I. pA2 (B2 receptor [2]) | Rb.A. α^E (B1 receptor) | Rb.J.V. α^E (B2 receptor [1]) | G.P.I. α^E (B2 receptor [2]) | Kb (B2 receptor [2]) [µM]
CC[C@H](C)[C@H](NC(=O)[C@@H]1Cc2ccccc2CN1C(=O)[C@H](CO)NC(=O)[C@H](Cc1ccccc1)NC(=O)CNC(=O)[C@@H]1CCCN1C(=O)[C@@H]1CCCN1C(=O)[C@H](CCCNC(=N)N)NC(=O)[C@H](N)CCCNC(=N)N)C(=O)O [Compound 14, D-Arg(L-Tic^7, Ile^8)desArg^9BK] (H-[dR]RPPGFS[Tic]I-OH; N-terminus and C-terminus assumed) | Inactive | > 9.12 | 6.46 | Inactive |  |  |  | 
CC(=O)N[C@@H](CCCCN)C(=O)N[C@@H](CCCNC(=N)N)C(=O)N1CCC[C@H]1C(=O)N1CCC[C@H]1C(=O)NCC(=O)N[C@@H](Cc1ccccc1)C(=O)N[C@@H](CO)C(=O)N[C@H](Cc1ccc2ccccc2c1)C(=O)N[C@@H](CC(C)C)C(=O)O [Compound 18, AcLys(D-βNal^7, Leu^8)desArg^9BK] (Ac-KRPPGFS[d2Nal]L-OH; C-terminus assumed) | Inactive | 0.0123 | > 8.71 | Inactive | 0 | 0 | 0 | 
CC[C@H](C)[C@H](NC(=O)[C@H](Cc1ccc2ccccc2c1)NC(=O)[C@H](CO)NC(=O)[C@H](Cc1ccccc1)NC(=O)CNC(=O)[C@@H]1CCCN1C(=O)[C@@H]1CCCN1C(=O)[C@H](CCCNC(=N)N)NC(=O)[C@H](CCCCN)NC(C)=O)C(=O)O [Compound 20, AcLys(L-βNal^7, Ile^8)desArg^9BK] (Ac-KRPPGFS[2Nal]I-OH; C-terminus assumed) | Inactive | 5.01 | 7.76 | Inactive | 0 | 0 | 0.06 | 
CC(C)C[C@H](NC(=O)[C@@H](Cc1ccc2ccccc2c1)NC(=O)[C@H](CO)NC(=O)[C@H](Cc1ccccc1)NC(=O)CNC(=O)[C@@H]1CCCN1C(=O)[C@@H]1CCCN1C(=O)[C@H](CCCNC(=N)N)NC(=O)[C@H](N)CCCNC(=N)N)C(=O)O [Compound 24, D-Arg(D-βNal^7, Leu^8)desArg^9BK] (H-[dR]RPPGFS[d2Nal]L-OH; N-terminus and C-terminus assumed) | Inactive | 0.0501 | 3.63 | Inactive |  |  |  | 
CC[C@H](C)[C@H](NC(=O)[C@@H](Cc1ccc2ccccc2c1)NC(=O)[C@H](CO)NC(=O)[C@H](Cc1ccccc1)NC(=O)CNC(=O)[C@@H]1CCCN1C(=O)[C@@H]1CCCN1C(=O)[C@H](CCCNC(=N)N)NC(=O)[C@H](CCCCN)NC(=O)CCCCCNC(=O)[C@H](Cc1ccc(O)cc1)NC(=O)CNC)C(=O)O [Compound 29, SarTyrεAhxLys(D-βNal^7, Ile^8)desArg^9BK] (H-[Sar]Y[Ahx]KRPPGFS[d2Nal]I-OH; N-terminus and C-terminus assumed) | Inactive | 0.00331 | 6.31 | Inactive |  |  |  | 
CC[C@H](C)[C@H](NC(=O)[C@@H](Cc1ccc2ccccc2c1)NC(=O)[C@H](CO)NC(=O)[C@H](Cc1ccccc1)NC(=O)CNC(=O)[C@@H]1CCCN1C(=O)[C@@H]1CCCN1C(=O)[C@H](CCCNC(=N)N)NC(=O)[C@H](CCCCN)NC(=O)CCCCCNC(=O)[C@H](Cc1cc(I)c(O)c(I)c1)NC(=O)CNC)C(=O)O [Compound 30, SarTyr(3,5-I)εAhxLys(D-βNal^7, Ile^8)desArg^9BK] (H-[Sar][Tyr(3,5-I2)][Ahx]KRPPGFS[d2Nal]I-OH; N-terminus and C-terminus assumed) | Inactive | 0.00724 | 7.41 | Inactive |  |  |  | 
N=C(N)NCCC[C@@H](N)C(=O)N[C@@H](CCCNC(=N)N)C(=O)N1CCC[C@H]1C(=O)N1C[C@H](O)C[C@H]1C(=O)NCC(=O)N[C@@H](Cc1cccs1)C(=O)N[C@@H](CO)C(=O)N1Cc2ccccc2C[C@@H]1C(=O)N1[C@H](C(=O)O)C[C@@H]2CCCC[C@@H]21 [Compound 31, D-Arg(Hyp^3, Thi^5, D-Tic^7, Oic^8)desArg^9BK, reference compound] (H-[dR]RP[Hyp]G[2Thi]S[dTic][Oic]-OH; N-terminus and C-terminus assumed) | Inactive | 0.158 | 0.0417 |  |  |  |  | > 7.59
